Tests used:
Type in all cases: cell-based
[1] = test system: SH-SY5Y human neuroblastoma cells; experiment: Toxicity: LDH activity release in SH-SY5Y cells; details: 24 h; for Maximum concentration tested for toxicity: increasing concentrations from 1 μM up to 1 mM
Description: The potential effects on cell viability of the assayed compounds are assayed in SH-SY5Y human neuroblastoma cells, by quantification of Lactate dehydrogenase (LDH) activity release. SH-SY5Y human neuroblastoma cells are seeded into 96-well culture plates at 10^4 cells/well. The medium is then removed and the cells incubated with different concentrations of the compounds during 24 h. The compounds are tested at increasing concentrations starting from 1 μM, in fresh culture medium, in order to find the minimum concentration at which the compounds are toxic, up to a maximum of 1 mM. After 24 h, the medium is removed and cells attached to the bottom of the well are lysed by adding 50 μl of Krebs-Hepes; Triton X-100 1% during 5 minutes at room temperature. For LDH release quantification, the Roche cytotoxicity detection kit (Cat.
No. 11 644 793 001) is used. The LDH activity is measured by its absorbance at 492 nm with reference wavelength 620 nm.
In Table 1, for each compound the maximum concentration at which toxicity was tested is indicated in the second column. In the third column, it is indicated whether at this maximum concentration the compound was toxic or not. All the compounds, with the exception of Compound 3, resulted non-toxic at the concentration for which activity was found, in most of the cases even at a 1000-fold concentration. Thus, the compounds may be considered non-toxic.

[2] = test system: SH-SY5Y human neuroblastoma cells; experiment: Protection against hydrogen peroxide-induced cell death (LDH); details: Homo sapiens, SH-SY5Y, compound 1 h before H2O2 100 μM, 24 h, read-out: Protect. H2O2 (minimum concentration for which protection was determined)
Description: The aim of this assay is to determine the neuroprotective effect of the compounds of formula (I), when human neuroblastoma cells are exposed to oxidative stress induced by hydrogen peroxide, which is highly deleterious to the cell and its accumulation causes oxidation of cellular targets such as DNA, proteins, and lipids leading to mutagenesis and cell death.
SH-SY5Y human neuroblastoma cells are seeded into 96-well culture plate at a density of 10^4 cells/well. Cells are exposed to different concentrations of the compound one hour before the treatment with H2O2 100 μM during 24 h. 5 mM N-acetylcysteine (NAC), a known anti-oxidant agent was used as a positive control, and preincubated 1 hour before the treatment with H2O2. After 24 h, the medium is removed and cells attached to the bottom of the well are lysed by adding 50 μl of Triton X-100 1% in Krebs-Hepes during 5 minutes at room temperature. For LDH release quantification, Roche cytotoxicity detection kit (Cat. No. 11 644 793 001) was used.

[3] = test system: SH-SY5Y human neuroblastoma cells; experiment: Protection against 6-OHDA-induced cell death, condition A (10% foetal bovine serum); details: preincubated 2 hours, 6-OHDA 75 μM 16 hours, read-out: Protect. 6-OHDA (+ FBS) (minimum concentration with neuroprotective effect)
Source text: (§1) The aim of this experiment is to determine the protective effect of the compounds of formula (1) against the toxicity caused by 6-OHDA. This toxin induces a cell death similar to which occurs in Parkinson's disease, destroying dopaminergic neurons (“MPTP and 6-hydroxydopamine-induced neurodegeneration as models for Parkinson's disease: neuroprotective strategies”; Grunblatt E, et al.; J Neurol. 2000 Apr; 247 Suppl 2:II95-102).
(§2) Two or three days before the experiment, the SH-SY5Y human neuroblastoma cells are seeded into 96-well culture plate at a density of 10^4 cells/well. Cells are exposed to the treatment with 6-OHDA and, finally, cell death is measured by LDH quantification. As positive control we used NAC.
• A) NAC and the compound of formula (I) are preincubated during 2 hours before the treatment with 6-OHDA 75 μM during 16 hours. The assay is performed in medium containing 10% Foetal bovine serum.
(§3) For each compound the minimum concentration of compound of formula (I) at which a neuroprotective effect is shown.

[4] = test system: SH-SY5Y human neuroblastoma cells; experiment: Protection against 6-OHDA-induced cell death, condition B (no fetal bovine serum); details: preincubated 1 hour, 6-OHDA 50 μM 24 hours, read-out: Protect. 6-OHDA (−FBS) (minimum concentration with neuroprotective effect)
Source text: as §1, §2
• B) NAC and the compound of formula (I) are preincubated during 1 hour before the treatment with 6-OHDA 50 μM during 24 hours. The assay is performed in a medium without any fetal bovine serum.
as §3

SH-SY5Y cells = experiment: Neuroprotection against Aβ25-35 toxicity (LDH assay); details: Homo sapiens, pre-treated 1 hour, 200 μM Aβ25-35 24 hours, read-out: Protect. beta-Amyloid25-35 (minimum concentration showing neuroprotection)
Description: In order to evaluate potential neuroprotection of compounds, SH-SY5Y cells, cultured in 96-well plates, were pre-treated for 1 hour with the compound at different concentrations and then exposed 24 hours to 200 μM Aβ25-35 (Neosystem) to induce extensive oxidative stress and cell death. The ability of the compound of protecting against this toxicity is then evaluated by measuring intracellular LDH, using the colorimetric LDH assay.
It is widely accepted that the neurotoxic activity of Aβ resides within amino acids 25-35 (see e.g. Yankner B A et al., (1990) Neurotrophic and neurotoxic effects of amyloid β protein: reversal by tachykinin neuropeptides; Science 250:279-282).

[5] = test system: Aβ (1-40) secretion by CHO7W cells (stably transfected with human APP751 wt cDNA); experiment: Inhibition of Aβ(1-40) secretion (ELISA, cellular supernatants); details: Aβ 1-40 ELISA
Source text: To quantitate Aβ secretion ELISA-based method was used. The assay consists in detection of antigen by selective monoclonal anti-Aβ-antibodies at two different epitopes forming a “Sandwich-complex”, that is detected by colorimetric measure due to the binding of a secondary antibody conjugated with peroxidase that catalyses the conversion of a substrate or chromogen, TMB, into a coloured product, directly proportional to the peptide quantity in the sample. The Aβ production has been analyzed by ELISA, using a colorimetric commercial kit: Immunoassay Kit Human β Amyloid 1-40 (Biosource).
Aβ (1-40) were quantified from cellular supernatants. An APP-transfected cell line has been employed for the experiments: CHO7W (stably transfected with human APP751 wt cDNA). The cells were grown in a culture medium consisting of DMEM supplemented with 2% Fetal bovine serum, 1% penicillin-streptomycin, 1% L-glutamine and 200 μg/ml G418. Cells are seeded in 96-well culture microplate, at 5000 cells/well and treatment with different compounds at different concentrations is performed 24 hour after seeding.
OM99-2 (H-5108, Bachem), a BACE inhibitor, was used as Aβ secretion reduction positive control in all the Aβ secretion studies. The cells were treated with this compound at 3 μM concentration, culture media were collected at 24 hours.

Row | Structure (SMILES) | Maximum concentration tested for toxicity [1] [µM] | Toxic at maximum concentration tested (Yes/No) ([1]; at 10 μM) | minimal effective concentration [2] [µM] | minimal effective concentration [3] [µM] | minimal effective concentration [4] [µM] | minimal effective concentration (SH-SY5Y cells) [µM] | minimal effective concentration ([5]; Homo sapiens, CHO-7W, read-out: Inhibition secretion beta-amyloid (minimum concentration)) [µM] | Toxic at maximum concentration tested (Yes/No) ([1]; at 1 mM) | Inhibition secretion beta-amyloid (minimum concentration) [5] [mM]
1 | O=C(O)CSc1cc(C=NO)nc2c1ccc1cccnc12 [Compound 16, [2-(Hydroxyimino-methyl)-[1,10]phenanthrolin-4-ylsulfanyl]-acetic acid] | 10 | Yes | 0.05 | 0.5 | 10 | 5 | 1 |  | 
2 | COc1cc(C=NO)nc2c1ccc1cccnc12 [Compound 1, 4-Methoxy-[1,10]phenanthroline-2-carbaldehyde oxime] | 1000 |  | 0.05 | 0.5 | 0.5 | 5 |  | Yes | 0.01
